Key:
[1] = system: male C57B1/6J mice; experiment: Oral glucose tolerance test in male C57B1/6J mice; type: in vivo; settings: 250 μg/kg
[2] = target: T1, human GLP-1R (Homo sapiens, UniProt P43220); experiment: In vitro activity on GLP-1R, CRE-luciferase HEK-293 cells; type: cell-based
T1 construct: expressed in transfected cells
How it was run: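 HEK-293 cells stably expressing human GLP-1R or human GCGR with CRE-luciferase reporter, 5000 cells/well in DMEM/10% FBS, exposed to compound. Luminescence read after luciferase reagent; EC50 taken from concentration-response curves.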

[3] = target: T2, human GCGR (Homo sapiens, UniProt P47871); experiment: In vitro activity on GCGR, CRE-luciferase HEK-293 cells; type: cell-based; settings: read-out: GCGR (EC50)
T2 construct: expressed in transfected cells
T2 sequence (P47871 26-477): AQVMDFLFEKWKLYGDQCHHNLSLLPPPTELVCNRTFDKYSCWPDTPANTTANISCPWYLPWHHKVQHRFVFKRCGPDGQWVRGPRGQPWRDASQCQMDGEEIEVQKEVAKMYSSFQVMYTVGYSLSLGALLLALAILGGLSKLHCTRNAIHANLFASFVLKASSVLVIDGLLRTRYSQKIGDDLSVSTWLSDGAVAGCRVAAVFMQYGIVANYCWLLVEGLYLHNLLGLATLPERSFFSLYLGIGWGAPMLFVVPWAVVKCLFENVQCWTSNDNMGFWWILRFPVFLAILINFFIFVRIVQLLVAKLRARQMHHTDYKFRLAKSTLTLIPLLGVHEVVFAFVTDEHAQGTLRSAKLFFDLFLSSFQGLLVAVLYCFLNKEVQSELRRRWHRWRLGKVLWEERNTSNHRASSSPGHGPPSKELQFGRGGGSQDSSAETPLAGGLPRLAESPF
Protocol: 5000 of HEK-293 cells, which are used in CRE-luciferase system and express human GCGR or GLP-1R stably, were inoculated into 384 well plates according to […] DMEM/10% FBS media/well. […] After incubation, […] of luciferase reagent was added directly to each plate and mixed gently for 2 minutes. The plates were placed into an Elmer Perkin plate reader for reading. Concentration curve of the compound was made by drawing software Prism 5, and the EC50 value was calculated.

[4] = system: DIO mice; experiment: Body weight reduction in DIO (obese) mice; type: in vivo; settings: 250 μg/kg SC daily, day 11 to day 30, DIO mice
From the text: Forty 25-week-old DIO mice (Nanjing University model animal research center) were randomly divided into five groups (compound 4, 5, 6, 7, and normal saline group), 8 in each group, having no difference in the basis weight of each group.

[5] = Pharmacokinetic analysis after IV or SC administration in male CD1 mice; settings: mouse, in vivo
Protocol: Pharmacokinetic parameters of the drugs were calculated by methods of model dependence (for data obtained from IV) and model independence (data obtained from SC).

T1 sequence (P43220 24-463): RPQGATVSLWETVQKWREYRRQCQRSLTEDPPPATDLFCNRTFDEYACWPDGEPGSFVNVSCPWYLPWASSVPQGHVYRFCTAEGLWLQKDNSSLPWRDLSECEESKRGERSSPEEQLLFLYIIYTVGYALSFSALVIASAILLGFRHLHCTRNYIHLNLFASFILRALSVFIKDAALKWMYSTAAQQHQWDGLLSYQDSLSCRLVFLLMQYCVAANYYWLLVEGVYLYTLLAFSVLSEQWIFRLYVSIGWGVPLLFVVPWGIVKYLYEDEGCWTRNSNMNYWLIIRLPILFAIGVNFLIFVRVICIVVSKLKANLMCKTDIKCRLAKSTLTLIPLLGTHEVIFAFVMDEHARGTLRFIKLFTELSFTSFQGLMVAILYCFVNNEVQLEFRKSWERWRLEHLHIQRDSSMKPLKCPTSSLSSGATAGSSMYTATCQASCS

CCCCCCCCCCCCCCCC(=O)NCCOCCOCCC(=O)NCCOCCOCCC(=O)NCCCC[C@H](NC(=O)[C@H](CC(=O)O)NC(=O)[C@H](CO)NC(=O)[C@@H](NC(=O)[C@H](Cc1ccccc1)NC(=O)[C@@H](NC(=O)CNC(=O)[C@H](CCC(N)=O)NC(=O)[C@@H](CO)NC(=O)[C@@H](N)Cc1c[nH]cn1)[C@@H](C)O)[C@@H](C)O)C(=O)N[C@@H](CO)C(=O)N[C@@H](CCCCN)C(=O)N[C@@H](Cc1ccc(O)cc1)C(=O)N[C@@H](CC(C)C)C(=O)N[C@@H](CC(=O)O)C(=O)NC(C)(C)C(=O)N[C@@H](CCCNC(=N)N)C(=O)N[C@@H](CCCNC(=N)N)C(=O)N[C@@H](C)C(=O)N[C@@H](CCC(N)=O)C(=O)N[C@@H](CC(=O)O)C(=O)N[C@@H](Cc1ccccc1)C(=O)N[C@H](C(=O)N[C@@H](CCC(N)=O)C(=O)N[C@@H](Cc1c[nH]c2ccccc12)C(=O)N[C@@H](CC(C)C)C(=O)N[C@@H](CCSC)C(=O)N[C@@H](CC(N)=O)C(=O)N[C@H](C(=O)NCC(=O)NCC(=O)N1CCC[C@H]1C(=O)N[C@@H](CO)C(=O)N[C@@H](CO)C(=O)NCC(=O)N[C@@H](C)C(=O)N1CCC[C@H]1C(=O)N1CCC[C@H]1C(=O)N1CCC[C@H]1C(=O)N[C@@H](CO)C(N)=O)[C@@H](C)O)C(C)C [Compound 5]
AUC of blood glucose in all four OGTT curve periods (0-480 min) compared with carrier (PBS) ([1]; P<0.05): significantly decreased | effect on oral glucose tolerance ([1]; male C57B1/6J mice): significantly reduced the oral glucose tolerance | GLP-1R/GCGR ([2]; ratio of EC50 GLP-1R to EC50 GCGR): 0.1 | EC50 ([2]; read-out: GLP-1R (EC50)): 0.06 nM | EC50 [3]: 0.43 nM | weight loss [4]: about 20% | body weight compared with normal saline group ([4]; P<0.05): significantly lower | clinical adverse effect [5]: no clinical adverse effect | Tmax ([5]; iv): ~12 h | half-life ([5]; iv): 4 to 6 h | peak time ([5]; sc): more than 12 hours

Source: patent US10479819B2 (priority 2014, dated 2019)
